Data on 14 compounds can be found in patent publication US12239643B2, “Therapeutic agent for inflammatory diseases, autoimmune diseases, fibrotic diseases, and cancer diseases” (MEIJI SEIKA PHARMA CO., LTD., priority 2018, dated 2025).

One experiment relates to PDE4. Description: Evaluation of PDE4 inhibitory activity, scintillation proximity assay. As to conditions: scintillation proximity assay; class symbols of Evaluation 1; read-out: PDE4 Inhibitory Activity (concentration for the inhibition rate of 50%, IC50), Evaluation 1. In kind it is biochemical. How it is done:
The BDE4 inhibitory activity was measured using scintillation proximity assay (SPA) as follows. First, a test compound dissolved in dimethyl sulfoxide was diluted 1:10 in reaction buffer solution which contained 50 mM of Tris-HCl with pH 7.4, 8.3 mM of MgCl2, 1.7 mM of EGTA, and 3 mg/mL of bovine serum albumin (BSA). Then, 10 μL of the diluted solution was added in a 96-well assay plate. Moreover, 50 μL of PDE4 (enzyme preparation) diluted 1:375 in the reaction buffer solution was added, and then 40 μL of [2,8-^3H]-adenosine-3′,5′-cyclic phosphate triethylammonium salt diluted 1:1000 in the reaction buffer solution was added. The mixture was allowed to stand at room temperature for 120 minutes. Thereafter, […] of RNA binding YSi-SPA beads suspension containing ZnSO4 was added and the mixture was allowed to stand at room temperature for 15 minutes, followed by adsorption of the enzyme reaction product to the beads. After that, the radioactivity was measured using a liquid scintillation counter for a 96-well plate. The mixture without the enzyme preparation added but only the reaction buffer solution added is a blank, and the mixture with the enzyme preparation added and only dimethyl sulfoxide added instead of the test compound is a control.
In addition, the PDE4 inhibitory activity (concentration that inhibits PDE4 activity by 50%=concentration for the inhibition rate of 50% (IC50)) of the test compound was calculated from the inhibition curves based on the inhibition rates for various concentrations of the test compound.
As to `O=C(NCc1ccccc1)c1cc(-c2nccs2)c2oc(N3CC4CCC(C3)N4)nc2c1` [Example 98, N-benzyl-2-(3,8-diazabicyclo[3.2.1]octan-3-yl)-7-(thiazol-2-yl)benzo[d]oxazole-5-carboxamide], the IC50 is less than 0.1 µM. The same measure, in the same setting: as for `OC(c1ccc(-c2nccs2)c2oc(N3CC4CC(C3)N4)nc12)C(F)F` (centres unmarked) [Example 125, 1-(2-(3,6-Diazabicyclo[3.1.1]heptan-3-yl)-7-(thiazol-2-yl)benzo[d]oxazol-4-yl)-2,2-difluoroethan-1-ol], the figure is less than 0.1 µM.

With `Oc1cc(-c2nccs2)c2oc(N3CC4CCC(C3)N4)nc2c1` [Example 63, 2-(3,8-Diazabicyclo[3.2.1]octan-3-yl)-7-(thiazol-2-yl)benzo[d]oxazol-5-ol], the IC50 is less than 0.1 µM. For the compound `OC(c1cc(-c2nccs2)c2oc(N3CC4CCCC(C3)N4)nc2c1)C(F)(F)F` (centres unmarked) [Example 136, 1-(2-(3,9-Diazabicyclo[3.3.1]nonan-3-yl)-7-(thiazol-2-yl)benzo[d]oxazol-5-yl)-2,2,2-trifluoroethan-1-ol], the IC50 was less than 0.1 µM.

Regarding `FC(F)(F)Oc1cc(-c2nccs2)c2oc(N3CC4CCC(C3)N4)nc2c1` [Example 54, 2-(3,8-Diazabicyclo[3.2.1]octan-3-yl)-7-(thiazol-2-yl)-5-(trifluoromethoxy)benzo[d]oxazole], the IC50 is less than 0.1 µM. Still for that read-out and setting: the result for `CC(O)(c1cc(-c2nccs2)c2oc(N3CC4CCCC(C3)N4)nc2c1)C(F)(F)F` (centres unmarked) [Example 161, 2-(2-(3,9-Diazabicyclo[3.3.1]nonan-3-yl)-7-(thiazol-2-yl)benzo[d]oxazol-5-yl)-1,1,1-trifluoropropan-2-ol] reads less than 0.1 µM; that for `O=C(O)COc1cc(-c2nccs2)c2oc(N3CC4CCC(C3)N4)nc2c1` [Example 74, 2-((2-(3,8-Diazabicyclo[3.2.1]octan-3-yl)-7-(thiazol-2-yl)benzo[d]oxazol-5-yl)oxy)acetic acid], less than 0.1 µM; that for `C[S+]([O-])c1cc(-c2nccs2)c2oc(N3CC4CCC(C3)N4)nc2c1` (centres unmarked) [Example 42, 2-(3,8-Diazabicyclo[3.2.1]octan-3-yl)-5-(methylsulfinyl)-7-(thiazol-2-yl)benzo[d]oxazole], less than 0.1 µM.

As for `CC(=O)c1cc(-c2nccs2)c2oc(N3CC4CCC(C3)N4)nc2c1` [Example 108, 1-(2-(3,8-Diazabicyclo[3.2.1]octan-3-yl)-7-(thiazol-2-yl)benzo[d]oxazol-5-yl)ethan-1-one], the IC50 is less than 0.1 µM.

The same experiment, now with this note: scintillation proximity assay; read-out: PDE4 Inhibitory Activity (Evaluation 1; concentration for the inhibition rate of 50%).
On to `CCOC(c1ccc(-c2nccs2)c2oc(N3CC4CC(C3)N4)nc12)C(F)(F)F` (centres unmarked) [Example 224, 2-(3,6-Diazabicyclo[3.1.1]heptan-3-yl)-4-(1-ethoxy-2,2,2-trifluoroethyl)-7-(thiazol-2-yl)benzo[d]oxazole], for which the IC50 was less than 0.1 µM.

For the compound `CC(C)(O)C(F)(F)Oc1ccc(-c2cscn2)c2oc(N3CC4CCC(C3)N4)nc12` [Example 308, 1-((2-(3,8-Diazabicyclo[3.2.1]octan-3-yl)-7-(thiazol-4-yl)benzo[d]oxazol-4-yl)oxy)-1,1-difluoro-2-methylpropan-2-ol], the IC50 is less than 0.1 µM. With `CC(O)(c1ccc(-c2nccs2)c2oc(N3CC4CC(C3)N4)nc12)C(F)(F)F` (centres unmarked) [Example 270, 2-(2-(3,6-Diazabicyclo[3.1.1]heptan-3-yl)-7-(thiazol-2-yl)benzo[d]oxazol-4-yl)-1,1,1-trifluoropropan-2-ol], the IC50 was less than 0.1 µM. Still for that read-out and setting: as for `CC(O)c1cc(-c2nccs2)c2oc(N3CC4CCC(C3)N4)nc2c1OC(F)(F)F` (centres unmarked) [Example 202, 1-(2-(3,8-Diazabicyclo[3.2.1]octan-3-yl)-7-(thiazol-2-yl)-4-(trifluoromethoxy)benzo[d]oxazol-5-yl)ethan-1-ol], the figure is less than 0.1 µM; as for `FC(F)Oc1ccc(-c2nccs2)c2oc(N3CC4CC(C3)N4)nc12` [Example 278, 2-(3,6-Diazabicyclo[3.1.1]heptan-3-yl)-4-(difluoromethoxy)-7-(thiazol-2-yl)benzo[d]oxazole], less than 0.1 µM.
